Legend:
[1] = Drug concentrations in Rhesus macaque ecto-cervical tissue explants (LC-MS/MS); format: in vitro ADME, Rhesus macaque (Macaca mulatta); conditions: NHP ecto-cervical explants; harvesting schedule of the assay
[2] = Drug concentrations in human colorectal tissue explants (LC-MS/MS); format: in vitro ADME; conditions: for AUC3h-15d / Cmax: Human colorectal explants, intracellular
[3] = Drug concentrations in human ecto-cervical tissue explants (LC-MS/MS); conditions: human ecto-cervical explants; harvesting schedule of the assay
[4] = Drug concentrations in Rhesus macaque vaginal tissue explants (LC-MS/MS); format: in vitro ADME, Rhesus macaque (Macaca mulatta); conditions: for AUC3h–15d / Cmax: Rh. macaque vaginal explants, intracellular
[5] = Drug concentrations in Rhesus macaque colorectal tissue explants (LC-MS/MS); format: in vitro ADME, Rhesus macaque (Macaca mulatta); conditions: for AUC3h–15d / Cmax: Rh. macaque colorectal explants, intracellular
[6] = test system: HIV-1YU.2 L313T/I321V and V314T/I321V; format: cell-based
SIVmac32H K65RM184V [7] = assay: microbe, parasite or virus in culture; format: cell-based; conditions: for p27 AUC3-15: Rhesus macaque vaginal explants
RT-SHIV [8] = assay: tissue or blood; format: cell-based; conditions: for p27 AUC3-15: Rhesus macaque vaginal explants
HIV-1YU.2 K65RM184V = assay: microbe, parasite or virus in culture; format: cell-based; conditions: Human colorectal explants;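 as to p24 AUC3-15: high arm above the IC50 and low arm below the IC50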
SIVmac32H K65RM184V [9] = assay: microbe, parasite or virus in culture; format: cell-based; conditions: for p27 AUC3-15: Rhesus macaque colorectal explants
RT-SHIV [10] = assay: tissue or blood; format: cell-based; conditions: for p27 AUC3-15: Rhesus macaque colorectal explants
SIVmac32H [11] = assay: microbe, parasite or virus in culture; format: cell-based; conditions: for p27 AUC3-15: Rhesus macaque vaginal explants
HIV-1BaL [12] = assay: microbe, parasite or virus in culture; format: cell-based; conditions: Human colorectal explants
HIV-1YU.2 M184V = assay: microbe, parasite or virus in culture; format: cell-based; conditions: Human colorectal explants
HIV-1YU.2 = assay: microbe, parasite or virus in culture; format: cell-based; conditions: Human colorectal explants
SIVmac32H K65RM184V [13] = assay: microbe, parasite or virus in culture; format: cell-based; conditions: for p27 AUC3-15: Rhesus macaque cervical explants
HIV-1YU.2 K65R = assay: microbe, parasite or virus in culture; format: cell-based; conditions: Human colorectal explants
HIV-1BaL [14] = assay: microbe, parasite or virus in culture; format: cell-based; conditions: Human cervical explants
SIVmac32H [15] = assay: microbe, parasite or virus in culture; format: cell-based; conditions: for p27 AUC3-15: Rhesus macaque cervical explants
HIV-1/SIV/SHIV isolates = format: cell-based
SIVmac32H [16] = assay: microbe, parasite or virus in culture; format: cell-based; conditions: for p27 AUC3-15: Rhesus macaque colorectal explants
[17] = Comb. gel, High [ ]: TFV 70 µM + MVC […]
[18] = Comb. gel, Low [ ]: TFV 7 µM + MVC […]
[19] = Single gel, High [ ]: TFV 70 µM
[20] = high concentration: TFV 70 µM, MVC […], or TFV 70 µM + MVC […]
[21] = low concentration: TFV 7 µM, MVC […], or TFV 7 µM + MVC […]
[22] = NHP colorectal explants, day 15

CC(Cn1cnc2c(N)ncnc21)OCP(=O)(O)OP(=O)(O)OP(=O)(O)O (stereo in doubt) [TFVdp]
TFVdp detection [1]: neither detected | AUC3h-15d [2, 17]: 82.53 fmol·days/mg | Cmax [2, 17]: 20.07 fmol/mg | AUC3h-15d [2, 18]: 41.21 fmol·days/mg | Cmax [2, 18]: 8.36 fmol/mg | AUC3h-15d [2, 19]: 98.95 fmol·days/mg | Cmax [2, 19]: 22.41 fmol/mg | AUC3h-15d ([2]; Single gel, Low [ ]: TFV 7 µM): 35.29 fmol·days/mg | Cmax ([2]; Single gel, Low [ ]: TFV 7 µM): 8.36 fmol/mg | difference in TFVdp concentrations between NHP and humans ([2]; colorectal explants): No significant differences | TFVdp detection [3]: neither detected | Cmax fold increase ([4]; NHP vaginal Cmax lower than in colorectal explants): 1.6 fold | AUC3h–15d [4, 17]: 96.03 fmol·days/mg | Cmax [4, 17]: 12.81 fmol/mg | AUC3h–15d [4, 18]: 54.08 fmol·days/mg | Cmax [4, 18]: 7.21 fmol/mg | AUC3h–15d [4, 19]: 134.18 fmol·days/mg | Cmax [4, 19]: 17.89 fmol/mg | AUC3h–15d ([4]; Single gel, Low [ ]: TFV 7 µM): 46.22 fmol·days/mg | Cmax ([4]; Single gel, Low [ ]: TFV 7 µM): 6.16 fmol/mg | persistence of metabolite: detected post-dose ([4]; vaginal tissue): 3 h | AUC3h–15d [5, 17]: 148.40 fmol·days/mg | Cmax [5, 17]: 29.12 fmol/mg | AUC3h–15d [5, 18]: 107.96 fmol·days/mg | Cmax [5, 18]: 24.43 fmol/mg | AUC3h–15d [5, 19]: 176.28 fmol·days/mg | Cmax [5, 19]: 41.93 fmol/mg | AUC3h–15d ([5]; Single gel, Low [ ]: TFV 7 µM): 164.03 fmol·days/mg | Cmax ([5]; Single gel, Low [ ]: TFV 7 µM): 41.47 fmol/mg | persistence of metabolite: still detected post-dose ([5]; colorectal explants): up to 3 days

Maraviroc [MVC]
inhibitory potency against Env-mutated HIV-1YU.2 [6]: no reduction of inhibitory potency | IC50 (SIVmac32H K65RM184V [7]; NHP vaginal explants, day 15): 3.31 ± 1.68 µM | p27 AUC3-15 (SIVmac32H K65RM184V [7]; [20]): 1.33 ± 0.30 µgxd/ml | p27 AUC3-15 (SIVmac32H K65RM184V [7]; [21]): 1.55 ± 0.28 µgxd/ml | IC50 (RT-SHIV [8]; NHP vaginal explants, day 15): 2.56 ± 1.59 µM | p27 AUC3-15 (RT-SHIV [8]; [20]): 1.27 ± 0.28 µgxd/ml | p27 AUC3-15 (RT-SHIV [8]; [21]): 1.54 ± 0.31 µgxd/ml | IC50 (HIV-1YU.2 K65RM184V; day 15): 1.43 ± 0.98 µM | p24 AUC3-15 (HIV-1YU.2 K65RM184V; [20]): 0.82 ± 0.09 µgxd/ml | p24 AUC3-15 (HIV-1YU.2 K65RM184V; [21]): 1.60 ± 0.38 µgxd/ml | IC50 (SIVmac32H K65RM184V [9]; [22]): 1.98 ± 1.07 µM | p27 AUC3-15 (SIVmac32H K65RM184V [9]; [20]): 1.33 ± 0.22 µgxd/ml | p27 AUC3-15 (SIVmac32H K65RM184V [9]; [21]): 1.65 ± 0.32 µgxd/ml | IC50 (RT-SHIV [10]; [22]): 2.32 ± 0.78 µM | p27 AUC3-15 (RT-SHIV [10]; [20]): 2.85 ± 2.01 µgxd/ml | p27 AUC3-15 (RT-SHIV [10]; [21]): 5.25 ± 3.12 µgxd/ml | IC50 (SIVmac32H [11]; NHP vaginal explants, day 15): 3.32 ± 3.19 µM | p27 AUC3-15 (SIVmac32H [11]; [20]): 1.26 ± 0.24 µgxd/ml | p27 AUC3-15 (SIVmac32H [11]; [21]): 1.45 ± 0.28 µgxd/ml | IC50 (HIV-1BaL [12]; day 15): 1.26 ± 0.49 µM | p24 AUC3-15 (HIV-1BaL [12]; [20]): 0.59 ± 0.33 µgxd/ml | p24 AUC3-15 (HIV-1BaL [12]; [21]): 2.68 ± 1.79 µgxd/ml | IC50 (HIV-1YU.2 M184V; day 15): 1.24 ± 1.88 µM | p24 AUC3-15 (HIV-1YU.2 M184V; [20]): 0.26 ± 0.13 µgxd/ml | p24 AUC3-15 (HIV-1YU.2 M184V; [21]): 0.70 ± 0.11 µgxd/ml | IC50 (HIV-1YU.2; day 15): 1.15 ± 0.84 µM | p24 AUC3-15 (HIV-1YU.2; [20]): 1.60 ± 0.57 µgxd/ml | p24 AUC3-15 (HIV-1YU.2; [21]): 9.15 ± 5.28 µgxd/ml | IC50 (SIVmac32H K65RM184V [13]; NHP cervical explants, day 15): 4.57 ± 2.92 µM | p27 AUC3-15 (SIVmac32H K65RM184V [13]; [20]): 1.37 ± 0.30 µgxd/ml | p27 AUC3-15 (SIVmac32H K65RM184V [13]; [21]): 1.62 ± 0.33 µgxd/ml | IC50 (HIV-1YU.2 K65R; day 15): 2.77 ± 1.12 µM | p24 AUC3-15 (HIV-1YU.2 K65R; [20]): 0.36 ± 0.05 µgxd/ml | p24 AUC3-15 (HIV-1YU.2 K65R; [21]): 0.76 ± 0.10 µgxd/ml | IC50 (HIV-1BaL [14]; day 15): 2.85 ± 0.49 µM | p24 AUC3-15 (HIV-1BaL [14]; [20]): 1.32 ± 0.36 µgxd/ml | p24 AUC3-15 (HIV-1BaL [14]; [21]): 2.61 ± 1.35 µgxd/ml | IC50 (SIVmac32H [15]; NHP cervical explants, day 15): 2.74 ± 1.18 µM | p27 AUC3-15 (SIVmac32H [15]; [20]): 1.27 ± 0.35 µgxd/ml | p27 AUC3-15 (SIVmac32H [15]; [21]): 1.42 ± 0.44 µgxd/ml | potency against the mutant isolates (HIV-1/SIV/SHIV isolates): no impact | IC50 (SIVmac32H [16]; [22]): 1.96 ± 1.3 µM | p27 AUC3-15 (SIVmac32H [16]; [20]): 2.42 ± 0.53 µgxd/ml | p27 AUC3-15 (SIVmac32H [16]; [21]): 6.12 ± 1.35 µgxd/ml

Reference: PMC9157191, “The ex vivo pharmacology of HIV-1 antiretrovirals differs between macaques and humans” (iScience, 2022)
